Measured values from article PMC4138103 (PLoS ONE, 2014).
“And” between values parts separate entries of the source, which are not always exact repeats. Equal values may be shown once.

Tested on: Sprague-Dawley rats
Assay: Retinoid analyses in liver, serum and kidney
Type: in vivo, Rattus norvegicus
Parameters: key to Dose response, Liver Retinol: D: significant dose response (for results see Table 2 in the text); T: significant trend; key to Kidney Retinyl esters, Dose response / Liver All-trans RA, Dose response / Kidney All-trans RA, Dose response / Serum Retinol, Dose response: D: significant dose response (for results, see Table 2); T: significant trend
Procedure: Retinoids in liver, serum, and kidney were analyzed according to Schmidt et al.. The polar retinoids 9-cis-retinoic acid (9-cis-RA), 13-cis-retinoic acid (13-cis-RA), 13-cis-4-oxo-retinoic acid (13-cis-4-o-RA), 9-cis-4-oxo-13,14-dihydro-retinoic acid (9-cis-4-o-13,14-dh-RA), all-trans retinoic acid (all-trans RA) and the apolar retinoids retinol and retinyl palmitate were extracted by a single liquid-extraction, separated from each other via solid-phase extraction using an aminopropyl phase, and then injected onto two different HPLC systems that were coupled with UV detection. […] The limits of detection (LOD) for all-trans RA and 9c-4o-13,14-dh-RA were 0.7 and 1.0 pmol/g tissue, and 0.3 and 0.6 pmol/ml serum, respectively. Retinol and retinyl palmitate were separated on a J'sphere ODS-H80 (4.6×150 mm, 4 µm particle size) obtained from YMC (Schermbeck, Germany), and were detected at 325 nm. The LOD for retinol and retinyl palmitate were 5.6 and 5.5 pmol/g tissue, and 4.2 and 4.2 pmol/ml serum, respectively.
Data were also analyzed using the BMD method, which is based on dose-response modeling of the full data set using a nested family of exponential and Hill models. The analyses were done on data of males and females combined, using sex as a covariate. […] In that case, different Critical Effect Doses (CEDs) and CEDs at the lowest bound of the confidence interval (CED-L) were generated for each sex. If no difference between sexes is detected, a CED and CED-Ls for the combined data is generated. However, this was also done if the curve fits are close, and separate analyses for males and females were then performed manually. CEDs and CED-Ls were calculated at the predefined Critical Effect Size (CES) of 5% (EFSA standard) or 10%.

[1] = females, CES 5%, total dose based
[2] = females, CES 10%, total dose based
[3] = females, adipose tissue concentration based
[4] = males, total dose 0-1700 mg/kg bw
[5] = males, total dose 3 mg/kg bw, group mean, N=5
[6] = males, total dose 10 mg/kg bw, group mean, N=5
[7] = males, total dose 30 mg/kg bw, group mean, N=5

Clc1cc(Cl)c(-c2cc(Cl)c(Cl)c(Cl)c2Cl)cc1Cl [PCB 180, 2,2′,3′,4,4′,5,5′-heptachlorobiphenyl]
Kidney all-trans RA amount, CED-L [1]: 319 mg/kg bw
Kidney all-trans RA concentration, CED [1]: 457 mg/kg bw
Kidney all-trans RA concentration, CED-L [1]: 321 mg/kg bw
Kidney retinol amount, CED [1]: 355 mg/kg bw
Kidney retinol amount, CED-L [1]: 221 mg/kg bw
Kidney retinol concentration, CED [1]: 335 mg/kg bw
Kidney retinol concentration, CED-L [1]: 216 mg/kg bw
Liver 9c-4o-13,14-dh-RA amount, CED [1]: 13.1 mg/kg bw
Liver 9c-4o-13,14-dh-RA amount, CED-L [1]: 8.29 mg/kg bw
Liver 9c-4o-13,14-dh-RA conc., CED [1]: 12 mg/kg bw and 12.2 mg/kg bw
Liver 9c-4o-13,14-dh-RA conc., CED-L [1]: 8.77 mg/kg bw
Liver retinol concentration, CED [1]: 156 mg/kg bw
Liver retinol concentration, CED-L [1]: 119 mg/kg bw
Liver retinyl esters amount, CED [1]: 254 mg/kg bw
Liver retinyl esters amount, CED-L [1]: 189 mg/kg bw
Liver retinyl esters concentration, CED [1]: 122 mg/kg bw
Liver retinyl esters concentration, CED-L [1]: 104 mg/kg bw
Serum retinol concentration, CED [1]: 400 mg/kg bw
Serum retinol concentration, CED-L [1]: 242 mg/kg bw
Kidney all-trans RA amount, CED [2]: 965 mg/kg bw
Kidney all-trans RA amount, CED-L [2]: 625 mg/kg bw
Kidney all-trans RA concentration, CED [2]: 892 mg/kg bw
Kidney all-trans RA concentration, CED-L [2]: 626 mg/kg bw
Kidney retinol amount, CED [2]: 694 mg/kg bw
Kidney retinol amount, CED-L [2]: 431 mg/kg bw
Kidney retinol concentration, CED [2]: 655 mg/kg bw
Kidney retinol concentration, CED-L [2]: 421 mg/kg bw
Liver 9c-4o-13,14-dh-RA amount, CED [2]: 27.2 mg/kg bw
Liver 9c-4o-13,14-dh-RA amount, CED-L [2]: 17.2 mg/kg bw
Liver 9c-4o-13,14-dh-RA conc., CED [2]: 25.3 mg/kg bw
Liver 9c-4o-13,14-dh-RA conc., CED-L [2]: 18.2 mg/kg bw
Liver retinol concentration, CED [2]: 374 mg/kg bw
Liver retinol concentration, CED-L [2]: 263 mg/kg bw
Liver retinyl esters amount, CED [2]: 522 mg/kg bw
Liver retinyl esters amount, CED-L [2]: 388 mg/kg bw
Liver retinyl esters concentration, CED [2]: 252 mg/kg bw
Liver retinyl esters concentration, CED-L [2]: 214 mg/kg bw
Serum retinol concentration, CED [2]: 781 mg/kg bw
Serum retinol concentration, CED-L [2]: 474 mg/kg bw
Kidney all-trans RA concentration, CED [3]: 2930 µg/g lipid
Kidney retinol concentration, CED [3]: 2060 µg/g lipid
Liver 9c-4o-13,14-dh-RA concentration, CED [3]: 55.5 µg/g lipid and 56 µg/g lipid
Liver retinol concentration, CED [3]: 1000 µg/g lipid
Liver retinyl ester concentration, CED [3]: 793 µg/g lipid
Serum retinol concentration, CED [3]: 2470 µg/g lipid
Serum retinol concentration, Maximum response (females, controls vs high dose, fitted model): 23.1%
Liver retinol concentration, max. decrease (males): 47%
Liver retinyl ester concentration, max. decrease (males): 63%
Dose response, Kidney Retinol [4]: D, T
Dose response, Kidney Retinyl esters [4]: D, T
Dose response, Liver All-trans RA [4]: D, T
Dose response, Liver Retinol [4]: D
Dose response, Liver Retinyl esters [4]: D, T
Kidney Retinol, Dose response [4]: D, T
Kidney Retinyl esters, Dose response [4]: D
Liver All-trans RA, Dose response [4]: D
Liver Retinol, Dose response [4]: D, T
Liver Retinyl esters, Dose response [4]: D, T
Kidney All-trans RA [5]: 35.9 pmol
Kidney Retinol [5]: 14.2 nmol
Kidney Retinyl esters [5]: 4.99 nmol
Liver 9-cis-4o-13,14-dh RA [5]: 218 pmol
Liver All-trans RA [5]: 544 pmol
Liver Retinol [5]: 0.28 µmol
Liver Retinyl esters [5]: 11.5 µmol
Kidney All-trans RA [6]: 36.9 pmol
Kidney Retinol [6]: 17.6 nmol
Kidney Retinyl esters [6]: 8.73 nmol
Liver All-trans RA [6]: 632 pmol
Liver Retinol [6]: 0.32 µmol
Liver Retinyl esters [6]: 12.5 µmol
Kidney All-trans RA (males, total dose 30 mg/kg bw): 31.8 pmol/g
Kidney Retinol (males, total dose 30 mg/kg bw): 16.9 nmol/g
Kidney Retinyl esters (males, total dose 30 mg/kg bw): 7.83 nmol/g
Liver All-trans RA (males, total dose 30 mg/kg bw): 44.5 pmol/g
Liver Retinol (males, total dose 30 mg/kg bw): 20.5 nmol/g
Liver Retinyl esters (males, total dose 30 mg/kg bw): 0.77 µmol/g
Serum Retinyl esters (males, total dose 30 mg/kg bw): 46.5 pmol/mL
Liver Retinyl esters (males, total dose 30 mg/kg bw, Liver): 46.5 pmol/mL
Liver Retinol (males, total dose 30 mg/kg bw, Liver, n=4): 1.65 pmol/mL
Kidney All-trans RA [7]: 33.3 pmol
Kidney Retinol [7]: 17.5 nmol
Kidney Retinyl esters [7]: 8.12 nmol
Liver All-trans RA [7]: 623 pmol
Liver Retinol [7]: 0.29 µmol
Liver Retinyl esters [7]: 10.7 µmol
Serum Retinol (males, total dose 30 mg/kg bw, n=4): 1.65 pmol/mL
Kidney All-trans RA (males, total dose 100 mg/kg bw): 34.8 pmol/g
Kidney Retinol (males, total dose 100 mg/kg bw): 16.3 nmol/g
Kidney Retinyl esters (males, total dose 100 mg/kg bw): 8.27 nmol/g
Liver All-trans RA (males, total dose 100 mg/kg bw): 44.4 pmol/g
Liver Retinol (males, total dose 100 mg/kg bw): 15.7 nmol/g
Liver Retinyl esters (males, total dose 100 mg/kg bw): 0.62 µmol/g
Serum Retinyl esters (males, total dose 100 mg/kg bw): 84.5 pmol/mL
